Results taken from PubChem BioAssay (NCI).
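Values below derive from 48-hour exposures of cells grown in 96-well plates, with endpoints linearly interpolated between the two concentrations bracketing the appropriate inhibition level. GI50 marks 50% less growth. TGI: concentration producing complete growth inhibition.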

System: MDA-MB-468 breast
Test: DTP human tumour cell line panel, 48 h

Q: Which GI50 does the source give for `CCCCCCCCCCN=C(c1ccc(N(C)C)cc1)c1ccc(N(C)C)cc1` here?
A: 0.383 µM

Q: And the TGI?
A: 36.7 µM

Q: For `O=C(/C=C/c1ccccc1)CC(c1ccccc1)N1CCOCC1` (centres undefined), which GI50 is on record?
A: 2.05 µM

Q: And the TGI?
A: 5.56 µM

Q: `Cn1cc(-c2csc(-c3cn(C)c4ccccc34)n2)c2cnccc21` was tested. Which GI50 did it give?
A: 0.265 µM

Q: What about the TGI of the same compound?
A: 0.866 µM

Q: Which GI50 does the source give for `COc1cc2c(cc1-c1c(C)noc1C)cc(C)c(=O)n2Cc1ccccn1` here?
A: 0.859 µM

Q: And the TGI?
A: 4.8 µM

Q: For `CC1CCCc2c1nn(C(=O)/C=C(\N)c1ccccc1)c2N` (centres undefined), which GI50 is on record?
A: 11.9 µM

Q: What about the TGI of the same compound?
A: > 100 µM

Q: With `NC(=O)C1(N2CCCCC2)CCN(CCCC(=O)c2ccc(F)cc2)CC1` as the compound, how does the GI50 read?
A: 0.0204 µM

Q: And the TGI?
A: 0.0682 µM

Q: `c1ccc(Cn2cnc3ccc(-c4nc(-c5ccc6c(c5)ncn6C5CCCCC5)cn5ccnc45)cc32)cc1` was tested. Which GI50 did it give?
A: 1.92 µM

Q: What about the TGI of the same compound?
A: 4.43 µM

Q: Which results are given for `Cn1c([N+](=O)[O-])cnc1/C=C1\Oc2cc(Cl)ccc2C1=O`?
A: GI50: 3.15 µM; TGI: 15.2 µM

Q: What does the source list for `COc1ccccc1/C=C/C(=O)/C=C/c1ccccc1O`?
A: GI50: 0.53 µM; TGI: 2.06 µM

Q: Which GI50 does the source give for `Cn1c(/C(C#N)=C/c2ccc3ccccc3c2)cc2ccccc21` here?
A: 0.422 µM

Q: What about the TGI of the same compound?
A: > 100 µM

Q: With `O=C(O)CCC(NC(=S)S)C(=O)O.[Na+].[Zn+2]` (centres undefined) as the compound, how does the GI50 read?
A: > 50 µM

Q: And the TGI?
A: > 50 µM

Q: What does the source list for `CCN(CC)CCNC(=O)c1cn2ncnc(Oc3ccc(NC(=O)Nc4ccc(Cl)c(C(F)(F)F)c4)c(F)c3)c2c1C`?
A: GI50: 1.57 µM; TGI: 3.2 µM

Q: For `CC(=O)N[C@H](C(=O)N[C@@H](CCCNC(=N)N)C(=O)N[C@@H](CCCCN)C(=O)N[C@@H](CCCNC(=N)N)C(=O)N[C@]1(C)CCCCCC/C=C\CCC[C@@](C)(C(=O)N[C@@H](CCCNC(=N)N)C(=O)N[C@@H](CCC(=O)O)C(=O)N[C@@H](CC(C)C)C(=O)N[C@H](C(=O)N[C@@H](CCC(=O)O)C(N)=O)C(C)C)NC(=O)[C@H](CCC(N)=O)NC(=O)[C@H](CC(C)C)NC(=O)[C@H](CC(C)C)NC(=O)[C@H](CCCNC(=N)N)NC(=O)[C@H](CCCNC(=N)N)NC(=O)[C@H](CC(C)C)NC1=O)C(C)C`, which GI50 is on record?
A: 3.82 µM

Q: And the TGI?
A: 32.6 µM

Q: `CC1(C)N=C(N)N=C(N)N1c1ccc(OCC(=O)Nc2ccccc2)c(Cl)c1` was tested. Which GI50 did it give?
A: 3.05 µM

Q: What about the TGI of the same compound?
A: > 100 µM

Q: What does the source list for `COc1ccc2cc(-c3ccc(-c4ccc(C(=N)N)s4)s3)ccc2c1`?
A: GI50: 2.34 µM; TGI: 4.44 µM

Q: What does the source list for `CNC(=O)c1cc2c(Oc3ccc(NC(=O)C4(C(=O)Nc5ccc(F)cc5)CC4)cc3)ccnc2cc1OC`?
A: GI50: 2.88 µM; TGI: 13.5 µM

Q: With `Cc1cc(Nc2nc(SCc3ccc(C(=O)Nc4ccc(F)cc4N)cc3)nn3cccc23)n[nH]1` as the compound, how does the GI50 read?
A: 0.432 µM

Q: What about the TGI of the same compound?
A: 36 µM
